# According to patent EP4566597A1, “STATINS USEFUL IN THE TREATMENT OF SPLACHNIC VASCULAR DYSFUNCTIONS” (Hospital Clínic de Barcelona, priority 2023, dated 2025):
# How the values were obtained:
# [1] = test system: PVECs; assay: qPCR of EndMT markers in PVECs treated in vitro with Simvastatin; assay type: cell-based, human; settings: 5 µM Simvastatin sodium salt, 24 h
# Procedure: For portal vein endothelia cell (PVEC) isolation, excess surrounding fat tissue was meticulously removed from the vein using sterile scissors, and any residual blood was washed away with DPBS. Subsequently, the tubular vein was opened to expose the inner part of the vein facing upward. Trypsin EDTA 0,05% (Gibco, #25300054) was then added on the upper surface and incubated for 5 minutes at 37°C. EGM-2 medium was then added abundantly over the tissue and a cell scrapper (TPP-Reactiva, #99002) was used to carefully scrap the surface of the inner wall several times, in order to detach the endothelial cells from the vein wall. The EGM-2 medium with cells in suspension was then centrifuged at 300 g for 5 minutes and pellet resuspended in 2 ml of fresh EGM-2. Cells were then seeded in a well from a 6-well plate pre-coated with human plasma fibronectin at a concentration of 1 µg/cm^2 (Sigma, #F0895), and fresh media changed every other day until confluence. On average, confluence was reached 10 days after isolation.
# In order to isolate PVECs from other cell types that were also scrapped during the initial tissue processing, cells were detached, stained with anti-CD31-FITC (BD Bioscience, #555445) and CD144 -BV786 (BD Bioscience, #565672) antibodies and FACS sorted in a FACS Aria II cell sorter (BD Biosciences) according to manufacturer's instructions. PVECs were selected as CD31^+ CD144^+ cells and seeded back to either a 6-well plate, T25 or T75 flasks, depending on the cell amount obtained. Once ECs reached confluency, a third of the cells were collected in RLT buffer (Qiagen) for subsequent RNA isolation (passage 1), a third was used for flow cytometry purity analysis and the final one third was passaged into a new 6-well plate. From this moment onwards, […] portal vein endothelial cells (PVECs) were expanded at a split ratio of 1:5 until senescence. At every passage, a fraction of the cells was cryopreserved for future experiments, while the rest was used for flow cytometry purity check, RLT collection and tube assays. Endothelial phenotype of PVECs was routinely monitored by cell morphology, flow cytometry, immunofluorescence and tube formation capacity.
# (§1) PVECs were seeded in 6-well plates in triplicates (for RNA collection) and in 60mm dishes (for protein collection) at a concentration of 6x10^4 cells/ml and grow for 24 h to obtain 70% confluency. PVECs from CT (n=3), CH (n=7) and CH-PVT (n=6) were then treated in vitro with 5 µM Simvastatin sodium salt (Sigma, #567022) for another 24 h and collected in either RLT or RIPA buffer for further analysis by means of quantitative real-time polymerase chain reaction (qPCR) or Western blotting, respectively. Its effect on mesenchymal markers and EndMT promoters, including TFs and all the molecules involved in EndMT initiation or progression previously described, was studied.
# Total RNA was isolated by RNeasy Micro and Mini kit (Qiagen) as stated above. First-strand cDNA was synthesized using the High Capacity cDNA Reverse Transcription Kit (Applied, Thermo Fisher, #4368814) according to the manufacturer's instructions. Quantitative real-time PCR (qPCR) was performed using PowerUp™ sybr® Green Master Mix (Applied Biosystems, #A25776) with technical duplicates using an AB1 Prism® 7900 HT Cycler (Applied Biosystems). PCR cycle parameters were as follows: 95 °C for 10' followed by 40 cycles at 95 °C for 15" and 60 °C for 1'. Results were obtained with the Sequence Detection System 3.2 software (Applied Biosystems) and further analyzed by the 2-ΔΔCt method. GAPDH was used as a loading control. Results are shown as fold-change.
# [2] = test system: phosphor-SMAD2; assay: Western blot of PVECs treated in vitro with simvastatin; assay type: cell-based, human; settings: FIG. 10
# Procedure: as §1
# Proteins were extracted with RIPA buffer complemented with Halt Protease & Phosphatase inhibitors (ThermoFisher) and total protein estimated using Bradford's Reagent (Bio-Rad) following manufacturer's instructions. […] Extracted proteins were analyzed by western blot. […] Images were acquired with a LAS-4000 apparatus (Fujifilm, TDI, Alcobendas, Spain) and protein expression was determined by densitometric analysis using the Image Studio Lite software (LI-COR). Results are expressed as relative densitometric values normalized to endogenous control β-actin. […]
# [3] = PVECs from CT, CH and CH-PVT, qPCR, FIG. 9
# [4] = PVEC from cirrhotic patients with or without PVT, qPCR
structure (smiles),measurement,setting,value
"CCC(C)(C)C(=O)O[C@H]1C[C@@H](C)C=C2C=C[C@H](C)[C@H](CC[C@@H]3C[C@@H](O)CC(=O)O3)[C@H]21 [Simvastatin, [(1S,3R,7S,8S,8aR)-8-[2-[(2R,4R)-4-hydroxy-6-oxooxan-2-yl]ethyl]-3,7-dimethyl-1,2,3,7,8,8a-hexahydronaphthalen-1-yl] 2,2-dimethylbutanoate]",endothelial markers expression (Cd31),[1]; [3],increasing
same,endothelial markers expression (NOs3),[1]; [3],increasing
same,expression of mesenchymal markers (AIFM2),[1]; [4],reduced
same,expression of mesenchymal markers (CDH2),[1]; [4],reduced
same,expression of the adhesion molecule VCAM1,[1]; [4],reduced
same,EndMT occurring in PVEC,"[1]; overall finding, FIG. 9",can ameliorate
same,GTPase (Rac2) expression,[1]; qPCR,decreasing
same,Serpine1 expression,[1]; qPCR,decreasing
same,expression of transcription factor Snail1,[1]; qPCR,reduced
same,phosphor-SMAD2 protein levels,[2],capable of reducing
